This is an account of results in patent US8076375B2 (priority 2005, dated 2011).

Where “and” joins values, the source holds several entries; their conditions need not be identical. Equal values may be shown once. Entries after “also recorded” stand apart in the source; their conditions may differ. Read-outs that look alike come from different tables or passages of the source. Some results are limits rather than exact numbers.

Series [1] has as its system ts2 and ts25 vaccinia virus mutants. It counts as cell-based.
In series [2] the target is vaccinia virus B1 kinase (GST-B1) (Vaccinia virus, UniProt P20505). Briefly: biochemical. It counts as biochemical. The note with it: for remaining activity at 10 µM: read-out: Percent activity remaining at 10 μM, B1; for inhibition at 10 µM: read-out: Inhibition of GST-B1 (of the control value).
For series [3], the system named is Lck (activated F505 form). It counts as biochemical. The note with it: for Effect on Lck activity (in words): 10 μM.
For the next series, the system named is wild-type vaccinia virus. Briefly: microbe, parasite or virus in culture. It counts as cell-based. The note with it: for inhibition at 100 µM: Orthopoxvirus vaccinia, HeLa.
The conditions of series [4]: mouse, in vivo, cited from earlier work.
The test system of series [5] is vesicular stomatitis virus (VSV). Type of series: cell-based.

Consider “2-methylnaphthalene-bis(hexachlorocyclopentadiene) adduct [reference compound]”, for which, in series [1], the “Effect on growth of ts2 and ts25 vaccinia virus, FIG. 1 (in words)” value is given as “did not inhibit”; the “Effect on growth of ts2 or ts25 vaccinia virus (in words)” value is listed as “no effect”.
With `O=C(O)c1cccc(/N=N/c2c(S(=O)(=O)O)ccc3c2C(=O)c2ccccc2C3=O)c1O` [Compound 125908-P, 3-(9,10-dioxo-2-sulfo-anthracen-1-yl)diazenyl-2-hydroxy-benzoic acid], the remaining activity (commonly what remains of the control signal, in per cent) at 10 µM in series [2] is 23%. In series [3], the “Percent Lck activity remaining” value worked out at 53% and the “Effect on Lck activity (in words)” value was “minimally inhibited”. Further, the “Effect on virus growth in HeLa cell culture (in words)” value (shortened to “Effect on virus growth”) in the series on wild-type vaccinia virus was “no apparent effect”.
Regarding `O=C(O)C1CCCCC1c1c2ccc(=O)c(O)c-2oc2c(O)c(O)ccc12` (stereo not drawn) [Compound 119910-U, 2-(4,5,6-trihydroxy-3-oxo-xanthen-9-yl)cyclohexane-1-carboxylic acid], in series [2], 3500 nM corresponded to half-maximal inhibition (IC50); the inhibition – broadly, the relative decrease from the control value, in per cent – at 10 µM was at least 87%; the remaining activity at 10 µM was found to be 0%. Further, in series [3], the “Percent Lck activity remaining” value was found to be 59% and the “Effect on Lck activity (in words)” value is recorded as “minimally inhibited”. Further, the “Effect on virus growth” value in the series on wild-type vaccinia virus is listed as “no apparent effect”. For the same compound, the “Toxic effects in mammals” value in series [4] is recorded as “no toxic effects were observed”.
For the compound `O=C(O)C=Cc1ccc[c]([Sb](=[O])([OH])[OH])c1` [Compound 13778-J, 3-(3-stibonophenyl)prop-2-enoic acid], the “Effect on B1 kinase activity in vitro (in words)” value (“Effect on B1 kinase activity” below) in series [2] is “inhibiting B1 almost not at all; also recorded: stimulated B1 in vitro”. Further, the “Percent Lck activity remaining” value in series [3] amounted to 79 ± 9%. For the same compound, the “Effect on growth of wild-type vaccinia virus (in words)” value with wild-type vaccinia virus is “inhibited the growth”.
`O=C(O)CCc1c2ccc(=O)c(O)c-2oc2c(O)c(O)ccc12` [Compound 119915-Z, 3-(4,5,6-trihydroxy-3-oxo-xanthen-9-yl)propanoic acid]: in series [2], the IC50 – broadly, the concentration at which inhibition is half-maximal – was 3000 nM; the inhibition at 10 µM is at least 87%; the remaining activity at 10 µM was 1%. Moreover, the “Percent Lck activity remaining” value in series [3] stood at 78%. For the same compound, in the series on wild-type vaccinia virus, the “Effect on virus growth” value is “no apparent effect”. Further, the “Toxic effects in mammals” value in series [4] is given as “no toxic effects were observed”.
Consider `CN[C@@H]1C[C@H]2O[C@@](C)([C@@H]1OC)n1c3ccccc3c3c4c(c5c6ccccc6n2c5c31)C(=O)NC4` [staurosporine, reference compound], for which, in series [2], the “Effect on B1 kinase activity” value is reported as “inhibited B1 or F10 kinase”.
As to `O=S(=O)(O)c1ccc(NN(c2c(O)ccc3ccccc23)S(=O)(=O)O)cc1` [Compound 9600-Q, 4-[N′-(2-hydroxynaphthalen-1-yl)-N′-sulfo-hydrazino]benzenesulfonic acid], in series [2], the “Effect on B1 kinase activity” value is recorded as “inhibiting B1 almost not at all” and the remaining activity at 10 µM turned out to be 93 ± 2%. Moreover, in series [3], the “Percent Lck activity remaining” value is listed as 53 ± 18% and the “Effect on Lck activity (in words)” value was “minimally inhibited”. In the series on wild-type vaccinia virus, the “Effect on virus growth” value is given as “no apparent effect”.
In the case of `O=C1c2ccccc2C(=O)c2c(NC3CCCCC3)ccc(Nc3ccc(S(=O)(=O)O)cc3)c21` [Compound 128437-O, 4-(4-cyclohexylamino-9,10-dioxo-anthracen-1-yl)aminobenzenesulfonic acid], in series [2], the remaining activity at 10 µM came out at 47%. In addition, the “Percent Lck activity remaining” value in series [3] is reported as 88%. Moreover, in the series with wild-type vaccinia virus, the “Effect on growth of wild-type vaccinia virus (in words)” value is recorded as “inhibited the growth”.
For `O=C(O)c1cc2c(cc1S(=O)(=O)O)C1C(C3C2C2(Cl)C(Cl)=C(Cl)C3(Cl)C2(Cl)Cl)C2(Cl)C(Cl)=C(Cl)C1(Cl)C2(Cl)Cl` (stereo not drawn) [Compound 270718-R, 3-sulfo-2-naphthoic acid-bis(hexachlorocyclopentadiene) adduct], in series [2], the IC50 is 2500 nM, the inhibition at 10 µM was at least 87% and the remaining activity at 10 µM is 12 ± 14%. Further, the “Percent Lck activity remaining” value in series [3] worked out at 86 ± 46%. For the same compound, in series [1], the “Effect on growth of ts2 and ts25 mutant viruses (in words)” value is reported as “reproducibly inhibited the growth”; the “Effect on growth of ts2 and ts25 vaccinia virus, FIG. 1 (in words)” value is “inhibited the growth”. In series [1] (100 µM), the “Inhibition of growth of ts2 and ts25, single experiment (FIG. 1)” value is given as 99%; the “Inhibition of growth of vaccinia virus over 24 hours” value is on record as 86-99%. For the same compound, in the series on wild-type vaccinia virus, the “Activity under reduced-serum conditions relative to 10% serum” value is given as “approximately four-fold”; the “Effect on growth of wild-type vaccinia virus (in words)” value is “inhibited the growth”; the “Effect on growth of wild-type vaccinia virus, FIG. 1 (in words)” value was “inhibited the growth”; the “Inhibition of growth of wild-type vaccinia virus” value is 90% and 99%. Further, in the series on wild-type vaccinia virus (read-out: Inhibition of growth of wild-type vaccinia virus, example of FIG. 1), the inhibition at 100 µM is 93%. Further, the inhibition at 100 µM in the series on wild-type vaccinia virus (read-out: Inhibition of wild-type vaccinia virus) was determined as 84%. In series [5], the “Effect on growth of VSV (in words)” value is “essentially no effect”; the “Effect on growth of VSV, FIG. 1 (in words)” value is recorded as “not the growth of VSV”; the “Inhibition of growth of VSV (in words)” value is given as “slight”. The “Effect on growth of human Ramos B cells” value with human Ramos B cells is on record as “no effect”. Further, in series [4] (200 mg/kg), the Toxicity in mice result is on record as “No toxicity”. Further, the “Toxic effects in mammals” value in series [4] is “no toxic effects were observed”.
In the case of `CC1C2C=CC1C(c1c3ccc(=O)c(O)c-3oc3c(O)c(O)ccc13)C2C(=O)O` (stereo not drawn) [Compound 119913-X, 7-methyl-6-(4,5,6,-trihydroxy-3-oxo-xanthen-9-yl)-bicyclo[2.2.1]hetp-2-ene-5-carboxylic acid], in series [2], inhibition was half-maximal at 2500 nM (IC50), the inhibition at 10 µM was at least 87% and the remaining activity at 10 µM was 1%. Besides, in series [3], the “Percent Lck activity remaining” value came out at 56% and the “Effect on Lck activity (in words)” value was “minimally inhibited”. Further, the “Effect on growth of ts2 and ts25 mutant viruses (in words)” value in series [1] is on record as “reproducibly inhibited the growth”. The “Effect on growth of wild-type vaccinia virus (in words)” value in the series with wild-type vaccinia virus was “inhibited the growth”. The “Toxic effects in mammals” value in series [4] is “no toxic effects were observed”.
Regarding `CCc1c(O)c2c(c(O)c1C(C)=O)C(=O)c1c(cc(O)c(C(=O)O)c1C(=O)O)C2=O` [Compound 170008-Y, 2-acetyl-7,8-bis(dihydroxymethylidene)-3-ethyl-9-hydroxy-anthracene-1,4,6,10-tetrone], in series [2], the IC50 was 2500 nM, the inhibition at 10 µM is at least 87% and the remaining activity at 10 µM is 12%. Further, the “Percent Lck activity remaining” value in series [3] turned out to be 81%. In addition, in the series with wild-type vaccinia virus, the “Effect on virus growth” value is given as “no apparent effect”.
For the compound `O=C(O)C=Cc1c2ccc(=O)c(O)c-2oc2c(O)c(O)ccc12` [Compound 119911-V, 3-(4,5,6-trihydroxy-3-oxo-xanthen-9-yl)prop-2-enoic acid], in series [2], the IC50 is 3000 nM, the inhibition at 10 µM is at least 87% and the remaining activity at 10 µM amounted to 0%. Besides, in series [3], the “Percent Lck activity remaining” value amounted to 70%. The “Effect on virus growth” value with wild-type vaccinia virus was “no apparent effect”. For the same compound, the “Toxic effects in mammals” value in series [4] is listed as “no toxic effects were observed”.
On to `Nc1nc(N)c(/N=N/c2ccc(C(=O)O)c(O)c2)c(N)n1` [Compound 117285-R, 2-hydroxy-4-(2,4,6-triaminopyrimidin-5-yl)diazenyl-benzoic acid], for which, in series [2], the IC50 worked out at 1000 nM, the inhibition at 10 µM was at least 87% and the remaining activity at 10 µM came out at 4 ± 2%. For the same compound, the “Percent Lck activity remaining” value in series [3] is 76 ± 25%. For the same compound, the “Effect on virus growth” value with wild-type vaccinia virus was “no apparent effect”.
